Our source for the melting point values is a melting point compilation (Tetko et al.; mined from patent text by program, amines drawn as free bases though some values may be those of a salt).

Take `Cc1cccc(C)c1NC(=O)/C=C1\SC(C)C(=O)N1C` (stereo unspecified): the melting point (in general, the temperature of the solid-liquid transition) lay within 220 to 222 °C. Consider `O=C(N[C@H]1CC[C@H](CCN2CCC(c3cccc4c3CCO4)CC2)CC1)c1ccc(N2CCOCC2)cc1`, for which the melting point turned out to be 247 °C. `Cc1noc(NC(=O)c2c(O)ccc3cc(-c4cccc(O)c4)ccc23)c1C` returned a melting point of 108 °C. Molecule `O=C1C(=O)c2ccccc2C2=C1SCC1(CCN(C(=O)C(Cl)c3ccccc3)CC1)O2` (stereo unspecified) yielded a melting point of 125 to 126 °C.

For the molecule `CCN1c2ccccc2CC(C#N)c2ccccc21` (stereo unspecified), the melting point lay in the range of 127 to 129 °C. In the case of `CC(C)CC(C)c1cc(C(C(F)(F)F)C(F)(F)F)ccc1NC(=O)c1c(C(F)(F)F)nn(C)c1Cl` (stereo unspecified), the melting point lay in the range of 102 to 104 °C. Regarding `C=CCSc1cc(-c2ccc(C(F)(F)F)cc2)ccc1C#N`, the melting point was 89 to 90 °C.

Molecule `O=C1CCc2c(Cc3ccc(Cl)cc3)cccc21` displayed a melting point of 87 to 88 °C. Turning to `C[C@@H]1c2ccccc2-c2ccc(Cl)cc2N1C(=O)c1ccc(O)cc1`, the melting point was in the range of 274 to 276 °C. In the case of `COCCCS(=O)(=O)NC(=O)CCc1cc(C(C)(C)C)nn1Cc1ccc(C(F)(F)F)cc1Cl`, the melting point lay in the range of 149 to 150 °C.

On to `O=C1NCCc2ccc(OCCCCN3CCN(c4cccc5c4OCCCO5)CC3)nc2N1`, for which the melting point lay within 78 to 79 °C. Under `c1ccc(C2(Cc3ccncc3)c3ccccc3-c3sccc32)cc1` (stereo unspecified) stands 88 to 92 °C.

The molecule `O=C(O)CCN1CCN(c2ccccc2)CC1` registered a melting point of 213 to 215 °C. For the molecule `O=C(O)C(=O)C12CC3CC(CC(O)(C3)C1)C2`, the melting point lay in the range of 164 to 166 °C. For `Brc1nc2ncsc2nc1Br` the value was 142 to 144 °C; for `CCOC(C)n1c(CCc2cccc(O)c2)nc(-c2ccccc2)c1-c1ccccc1` (stereo unspecified), 166 to 167 °C; for `CCC(C)C(C(=O)O)n1sc2ccccc2c1=O` (stereo unspecified), 50 to 52 °C. The molecule `CC(=O)NNc1c(C)cnc2c(NC(=O)c3ccccc3C(F)(F)F)cccc12` registered a melting point of 209 to 211 °C. Regarding `C=CCc1c(N2C(=O)C3=C(CCCC3)C2=O)ccc(C)c1O`, the melting point lay in the range of 141 to 143 °C. For `CC(=O)c1ccc(NS(C)(=O)=O)c(Oc2ccc(F)cc2F)c1`, the melting point is 117 to 118 °C. Take `N=C(NS(=O)(=O)C=Cc1ccc([N+](=O)[O-])cc1)c1cccc([N+](=O)[O-])c1`: the melting point is 230 to 232 °C. Molecule `Cc1oc(-c2cccc(C(F)(F)F)c2)nc1COc1cccc(CN(O)C(N)=O)c1` registered a melting point of 160 to 161 °C. For `COC(=O)C1=C(C)NC(C)=C(C(=O)OCC2COC3(CCCC3)O2)C1c1cccc([N+](=O)[O-])c1` (stereo unspecified), the melting point was 58 to 67 °C.

Take `COC(=O)C[C@@](O)(CCc1ccc(O)cc1)C(C)C`: the melting point lay within 89 to 91 °C. Under `COc1ccc(CN2CCC(c3cn(Cc4ccoc4)c4ccccc34)CC2)cc1C(=O)O` stands 253 to 255 °C. In the case of `CCCCN(CCCC)c1ccc(C=CC2=C(OC)C(=CC=CC3=C(C#N)C(=C(C#N)C#N)OC3(c3ccccc3)C(F)(F)F)CC(C)(C)C2)c(OC)c1` (stereo unspecified), the melting point fell in the range of 153 to 158 °C. `Cc1ccc(-c2c(O)c(=O)c3ccccc3n2C)cc1` registered a melting point of 216 to 218 °C. In turn, `CCOC(=O)c1nn(-c2ccc(C)cc2)nc1-c1ccccc1` returned a melting point of 74 to 75 °C. Molecule `N=C(N)NCCc1ccc(OCCC2Oc3ccccc3N(Cc3cccc(Cl)c3)C2=O)cc1` (stereo unspecified) had a melting point of 90 to 101 °C. Regarding `CCC1(C)NC(=O)c2ccccc2O1` (stereo unspecified), the melting point lay within 76 to 78 °C. For the molecule `C=CCOc1ccc(Nc2ccn(-c3ccccc3)n2)cc1`, the melting point was 80 to 81 °C. Regarding `O=C1NC(=O)c2c1cc1ccc3c(c1c2-c1ccncc1)OCO3`, the melting point fell in the range of 299 to 302 °C.

For `OCc1ccccc1CSc1ccccc1`, the melting point lay within 64 to 65 °C. For `Cc1cc(C(=O)O)ccc1N1CCOCC1`, the melting point lay in the range of 220 to 221 °C.

Turning to `COCc1c(C(=O)OC(C)C)ncc2[nH]c3cccc(OCc4ccccc4)c3c12`, the melting point fell in the range of 173 to 174 °C. `CN(C)C1CC=C(c2c[nH]c3ccc(NC(=N)c4cccs4)cc23)CC1` (stereo unspecified): the melting point lay within 113 to 115 °C.

In turn, `CCc1c2c(cc3c(=O)cc(C(=O)O)oc13)CCCC2` showed a melting point of 269 to 271 °C. Consider `Cn1c(CCC(=O)O)ccc1C(=O)c1ccc(Cl)cc1`, for which the melting point is 188 to 191 °C. In turn, `O=C(CO)c1ccc2ccccc2c1` came in with a melting point of 114 to 115 °C. For `CC(C)Oc1ccc([N+](=O)[O-])cc1NC(=O)Nc1cccnc1` the value was 231 to 232 °C; for `Cc1cc2c(cc1N1CC=CC1)OC(=O)C2C` (stereo unspecified), 81 to 82 °C; for `COc1ccc2c(c1)sc1ncc(C=O)n12`, 168 to 169 °C.

Consider `CC(C)NC(=O)c1c[nH]c2ncc(-c3nn(C)c4cc(Cl)cc(F)c34)nc12`, for which the melting point lay within 347 to 349 °C.

On to `CCC1(O)CC(=O)OCc2c1cc1n(c2=O)Cc2c-1nc1ccccc1c2C1CCCCC1` (stereo unspecified), for which the melting point was above 250 °C. Regarding `CCCCc1oc2ccccc2c1C(=O)O`, the melting point is 106 to 110 °C. As to `CCOC(=O)N1c2cc(OC)c(OC)cc2C(=O)CC1C` (stereo unspecified), the melting point is 94 to 95 °C. With `COC(=O)NC1CCCCC1`, the melting point fell in the range of 73 to 74 °C. `O=C(O)CCCCCCNS(=O)(=O)c1ccc(Cl)cc1` displayed a melting point of 128 to 129 °C. The molecule `C#CCNC(=O)c1ncn2c1[C@@H]1CCCN1Cc1c(Cl)cccc1-2` had a melting point of 233 to 235 °C. Molecule `C/C(=C\c1ccc(CO)cc1)c1ccc2c(c1)C(C)(C)CCC2(C)C` registered a melting point of 123 to 124 °C. On to `CCCn1cc(CO)c(=O)c2ccccc21`, for which the melting point lay in the range of 88 to 91 °C.

Molecule `Cc1ccc2c(c1C)OC(C(F)(F)F)C(C(=O)O)=C2` (stereo unspecified) yielded a melting point of 245 to 247 °C. Under `CN(Cc1ccc(S(C)(=O)=O)cc1)S(=O)(=O)c1cn(S(=O)(=O)N(C)C)c(C#N)n1` stands 169 to 172 °C; under `COC(=O)c1cc2cnc(N3CCC[C@H]3CO)nc2n(Cc2ccc(OC)c(Cl)c2)c1=O`, 175 to 176 °C.

`Oc1cc(O)c2c(-c3cc(F)cc(F)c3)c(Br)oc2c1` registered a melting point of 121 to 122 °C. Molecule `COc1cc(Br)c(C2=NC(C)(C)CO2)cc1OC` returned a melting point of 49 to 51 °C. For `Cc1c(C)n(CC=Cc2ccccc2)c2c(OCc3ccccc3)nncc12` the value was 132 to 134 °C; for `Cc1nsc(-c2ccc(Cl)nn2)n1`, 180 °C; for `CS(=O)c1[nH]cc(Cc2ccccc2)c1[N+](=O)[O-]` (stereo unspecified), 189 to 190 °C. Regarding `CCCS(=O)c1cc(O)ccc1C` (stereo unspecified), the melting point lay in the range of 84 to 85 °C. In turn, `C=C(C)C(=O)CC/C(C)=C/CC/C(C)=C/C(N)=O` displayed a melting point of 42 to 44 °C. For `CCOC(=O)COc1ccc(O)c(Cl)c1` the value was 80 to 82 °C.

`O=C(Nc1ccc2oc(=O)[nH]c2c1)C(=O)N1CCC(Cc2ccccc2)CC1` had a melting point of 187 to 190 °C. Molecule `CC(C)(C)OC(=O)NC(C(=O)O)c1ccc(O)cc1` (stereo unspecified) displayed a melting point of 112 to 114 °C. For `Cc1occ(S(=O)(=O)NC(C)(C)C)c1C` the value was 95 to 96 °C; for `C[C@H](N)c1nc2c(C(F)(F)F)cccc2c(O)c1C(=O)Nc1nccs1`, 270 °C.
